# From patent publication US20090048332A1, “Natural Novel Antioxidants” (HEJ Research Insitute, priority 2007, published 2009)
# Experiment: superoxide radical scavenging assay (SOR; NADH/PMS/NBT)
# Assay type: biochemical
# Conditions: for IC50: super oxide scavenging assay, formazan absorbance at 560 nm after three minutes, concentration needed to scavenge 50% of super oxide radicals, read-out: SOI (IC50 ± SEM); for radical scavenging activity in the SOR assay: qualitative statement; for IC50 compared with propyl gallate standard: comparison in words, refers to Table 1
# Procedure: The reaction mixture contained 10 μL of test samples (1 mM in dimethylsulfoxide), 90 μL of 0.1 M phosphate buffer (pH 7.4), 40 μL of (280 μM) β-nicotanamide adenine dinucleotide (NADH), 40 μL of (80 μM) nitro blue tetrazolium (NBT). The reaction was initiated by the addition of 20 μL of (8 μM) phenazine methosulphate (PMS). The solutions of NADH, NBT and PMS were prepared in phosphate buffer. The formation of superoxide was monitored by measuring the absorbance of the blue formazan dye after three minutes at 560 nm against the corresponding blank solutions in microtitre plate using Elisa (multiple reader spectra Max-3400). IC50 value represents concentration of compounds needed to scavenge 50% of super oxide radicals. Propyl gallate was used as a positive control. All chemicals used were of analytical grade (Sigma Chemicals, USA).
Compound,IC50 [µM],radical scavenging activity in the SOR assay,IC50 compared with propyl gallate standard,SOR activity on per-methylation (permethylated derivatives of the depsides)
"COc1ccc(O)c(C(C)(C)C)c1 [BHA, butylated hydroxy anisole, reference compound]",96 ± 1.75,–,–,–
"Cc1cc(OC(=O)c2c(C)cc(O)cc2O)cc(O)c1C(=O)OC[C@H](O)[C@H](O)CO [Erythrin, erythrin]",127 ± 0.97,exceptionally high percentage of radical scavenging activity,–,–
"Cc1cc(OC(=O)c2c(C)cc(O)cc2O)cc(O)c1C(=O)O [Lecanoric acid, lecanoric acid]",91.5 ± 2.1,exceptionally high percentage of radical scavenging activity,lower than the propyl gallate standard,–
"CCCCCc1c2c(cc(O)c1C(=O)O)OC(=O)c1c(cc(OC)cc1C(=O)CCCC)O2 [Lobaric acid, lobaric acid]",97.9 ± 1.6,exceptionally high percentage of radical scavenging activity,lower than the propyl gallate standard,–
"CCCc1cc(OC)cc(O)c1C(=O)Oc1c(OC)cc(CCC)c(C(=O)O)c1O [Sekikiac acid, sekikaic acid]",81.97 ± 0.31,exceptionally high percentage of radical scavenging activity,lower than the propyl gallate standard,–
COC(=O)c1c(C)cc(OC(=O)c2c(C)cc(OC)cc2OC)cc1OC [permethylated lecanoric acid],–,–,–,lost
"CCCOC(=O)c1cc(O)c(O)c(O)c1 [propyl gallate, Propyl gallate, reference compound]",106 ± 1.7,–,–,–
